Results from patent US4201866A, “O-Hemi-succinate of propranolol” (American Home Products Corporation, priority 1977, dated 1980).
Where a name gives a salt, the structure may show the parent alone.

Assay: Oral administration of the compound of Example 6; plasma levels (Example 7)
Type: in vivo
Settings: beagle dogs
Description: In this experiment, four beagle dogs were given an 80 mg. oral dose of propranolol HCl or an equivalent dose of the o-hemi-succinate. The animals were divided into two groups of two, each group receiving the drugs according to a crossover design. The crossover experiment was repeated twice. A period of at least one week elapsed between each dosing day. Blood samples were obtained at regular intervals after dosing a plasma was analyzed for free propranolol concentrations.
The compound of Example 6 was orally administered to beagle dogs in a similar manner as Example 2. Plasma levels of the compound of Example 6 were twice as high as those obtained after an equivalent dose of propranol hydrochloride.

Plasma levels compared with equivalent dose of propranolol hydrochloride: twice as high
Compound: CCOC(=O)CCC(=O)OC(CNC(C)C)COc1cccc2ccccc12 (stereo not shown) [Example 6, Butanedioic acid-1-[(2-(1-methylethyl)amino] -1-[(1-naphtalenyloxy)methyl]diethylether hydrochloride]
